Data on 7 compounds can be found in patent publication US10851108B2, “Substituted bicyclic heterocyclic compounds” (BRISTOL-MYERS SQUIBB COMPANY, priority 2016, dated 2020).

What all share (type): cell-based
One series has as its target hROMK (human Kir1.1) (Homo sapiens (Human), UniProt P48048). Briefly: Thallium Flux Assay. The note with it: CHO T-Rex hROMK stable cell line, 10-point concentration response; read-out: hROMK Th+ Flux IC50. Summed up:
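CHO T-Rex cells, doxycycline-induced (0.5 μg/ml) one day before, FluxOR dye-loaded; compounds 30 min, then Tl+ stimulus (final 3 mM Tl2SO4, 0.15 mM K2SO4) with ouabain in chloride-free buffer. Fluorescence 488/525 nm for 90 s; IC50 from 10-point curve; DMSO 0.5 or 1%.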

A further series has as its target hROMK (Homo sapiens (Human), UniProt P48048). Briefly: ROMK Manual Patch Clamp Assay. The note with it: whole-cell manual patch clamp, hROMK expressing cells; read-out: hROMK EP IC50. The procedure: ROMK Manual Patch Clamp Assay
Cell culture conditions: Cells were maintained in conditions similar to those for Thallium flux assay. hROMK channel expression was induced by adding 0.6 μg/ml of Doxycycline 16-24 hrs prior to the experiments. On the day of experiment, the cells were dissociated using Versene, resuspended in growth media and plated onto coverslips 15 minutes prior to use.
Electrophysiology: The coverslip plated with cells was placed in the experiment chamber perfused with bath solution composed of (in mM): 135 NaCl, 5 KCl, 2 CaCl2, 1 MgCl2, 10 HEPES, 5 Glucose (pH 7.4). Patch pipettes with resistance between 2-5 Megaohms, when filled with a solution containing (in mM): 135 KCl, 1 EGTA, 1 MgCl2, 10 HEPES, 2 Na2ATP (pH 7.3), were used to form gigaseals. The cells were voltage clamped at −75 mV in whole-cell configuration using an Axopatch 200b or Multiclamp 700b (Molecular Devices) amplifier controlled by pClamp Software (Molecular Devices). The current was recorded by applying a voltage step to −120 mV every 10 seconds. For each compound, 4-6 concentrations were applied for 3-8 minutes in a successive manner starting with the lowest concentration. At the end of the experiment, the cells were perfused with bath solution containing 2 mM Ba^2+ to isolate the contribution of hROMK current.
Data analysis: Raw current values (5 traces each for control, different compound concentration and Ba^2+ treatment groups) were exported from Clampfit into Microsoft Excel where the current remaining after application of Ba^2+ was subtracted from raw current to obtain hROMK specific current. These hROMK current values (average of 5 traces for each group) were then imported into a custom made template to generate a concentration response curve, which was subsequently fitted with a four parameter equation to calculate the IC50 value of the test compound.
The data in Table 4 is reported with two significant figures.
(In general: In patch-clamp work, channel activity is measured electrically.)

The next series addresses hERG (Homo sapiens (Human), UniProt Q12809). As to the kind of experiment: hERG Manual Patch Clamp Assay. The note with it: human, HEK 293 cells stably expressing hERG channels; for inhibition at 1 µM: pH 7.4, 1 μM, read-out: hERG EP IC50 (% Inhibition at 1 μM); for inhibition at 3 µM: pH 7.4, 3 uM, read-out: hERG EP % Inhibition at 3 uM; for inhibition at 10 µM: pH 7.4, 10 uM, read-out: hERG EP % Inhibition at 10 uM. The procedure:
hERG Manual Patch Clamp Assay
hERG electrophysiology assay: The experimental compounds were assessed for hERG activity on HEK 293 cells stably expressing hERG channels using patch clamp technique. Coverslips plated with hERG expressing cells were placed in the experimental chamber and were perfused with a solution composed of (in mM): 140 NaCl, 4 KCl, 1.8 CaCl2, 1 MgCl2, 10 Glucose, 10 HEPES (pH 7.4, NaOH) at room temperature. Borosilicate patch pipettes had tip resistances of 2-4 Mohms when filled with an internal solution containing: 130 KCl, 1 MgCl2, 1 CaCl2, 10 EGTA, 10 HEPES, 5 ATP-K2 (pH 7.2, KOH). The cells were clamped at −80 mV in whole cell configuration using an Axopatch 200B (Axon instruments, Union City, Calif.) patch clamp amplifier controlled by pClamp (Axon instruments) software. Upon formation of a gigaseal, the following voltage protocol was repeatedly (0.05 Hz) applied to record tail currents: depolarization step from −80 mV to +20 mV for 2 seconds followed by a hyperpolarization step to −65 mV (3 seconds) to elicit tail currents. Compounds were applied after stabilization of tail current. First, tail currents were recorded in presence of extracellular solution alone (control) and subsequently, in extracellular solution containing increasing compound concentrations. Each compound concentration was applied for 2-5 minutes. The percentage inhibition at each concentration was calculated as reduction in peak tail current with respect to the peak tail current recorded in the presence of control solution. Data analysis was performed in a custom made template. The percent inhibitions at different concentrations were plotted to obtain a concentration response curve, which was subsequently fitted with a four parameter equation to calculate hERG IC50 value.
A lower hERG % Inhibition value indicates less inhibition of the hERG current
(In general: Block of hERG is tested as a sign of cardiac risk.)

Chain of hROMK (human Kir1.1) (P48048 whole entry): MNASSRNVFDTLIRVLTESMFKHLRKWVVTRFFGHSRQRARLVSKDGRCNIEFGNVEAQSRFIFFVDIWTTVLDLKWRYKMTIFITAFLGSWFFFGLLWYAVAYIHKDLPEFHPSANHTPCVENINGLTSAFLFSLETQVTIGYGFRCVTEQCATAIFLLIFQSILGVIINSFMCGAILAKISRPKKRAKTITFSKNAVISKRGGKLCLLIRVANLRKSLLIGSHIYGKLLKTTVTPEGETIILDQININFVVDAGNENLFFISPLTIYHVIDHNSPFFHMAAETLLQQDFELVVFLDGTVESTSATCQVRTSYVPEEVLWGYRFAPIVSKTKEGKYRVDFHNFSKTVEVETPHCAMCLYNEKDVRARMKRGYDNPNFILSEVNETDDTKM
Chain of hROMK (P48048 whole entry): as above
Chain of hERG (Q12809 whole entry): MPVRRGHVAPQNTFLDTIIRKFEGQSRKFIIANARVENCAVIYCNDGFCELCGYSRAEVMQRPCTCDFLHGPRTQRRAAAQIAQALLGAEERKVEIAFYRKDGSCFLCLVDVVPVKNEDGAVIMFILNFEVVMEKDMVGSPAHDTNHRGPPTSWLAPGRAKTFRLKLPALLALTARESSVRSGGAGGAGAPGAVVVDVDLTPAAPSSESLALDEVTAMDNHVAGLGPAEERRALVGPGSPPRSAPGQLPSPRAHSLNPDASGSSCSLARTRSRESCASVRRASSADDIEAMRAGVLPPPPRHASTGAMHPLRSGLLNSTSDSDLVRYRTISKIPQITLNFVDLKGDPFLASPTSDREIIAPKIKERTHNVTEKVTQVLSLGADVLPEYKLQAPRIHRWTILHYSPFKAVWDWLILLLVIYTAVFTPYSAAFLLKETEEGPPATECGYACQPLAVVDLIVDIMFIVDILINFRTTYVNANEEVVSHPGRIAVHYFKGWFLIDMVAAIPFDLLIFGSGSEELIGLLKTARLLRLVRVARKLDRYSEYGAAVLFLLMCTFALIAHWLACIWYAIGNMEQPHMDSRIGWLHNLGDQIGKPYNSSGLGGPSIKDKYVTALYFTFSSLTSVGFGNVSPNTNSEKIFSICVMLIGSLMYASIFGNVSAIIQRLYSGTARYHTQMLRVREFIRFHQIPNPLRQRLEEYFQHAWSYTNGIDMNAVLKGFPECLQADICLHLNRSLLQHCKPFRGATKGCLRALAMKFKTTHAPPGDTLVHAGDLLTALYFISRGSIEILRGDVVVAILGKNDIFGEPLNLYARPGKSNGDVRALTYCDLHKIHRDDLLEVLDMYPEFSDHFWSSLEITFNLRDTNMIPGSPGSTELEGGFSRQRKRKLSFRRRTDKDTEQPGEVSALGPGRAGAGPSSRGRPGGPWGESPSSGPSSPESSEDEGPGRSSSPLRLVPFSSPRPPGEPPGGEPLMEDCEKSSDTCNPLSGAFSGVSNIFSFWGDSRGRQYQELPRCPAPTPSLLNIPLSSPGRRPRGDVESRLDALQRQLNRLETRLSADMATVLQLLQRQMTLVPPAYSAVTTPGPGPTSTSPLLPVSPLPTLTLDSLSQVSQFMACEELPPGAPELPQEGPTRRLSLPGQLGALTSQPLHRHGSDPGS

Turning to `Cc1c(C(O)CN2CCc3nc(-n4ncc5ncccc54)ncc3C2)ccc2c1COC2=O` (single isomer, unassigned) [Example 41-I, 5-(2-(2-(1H-pyrazolo[4,3-b]pyridin-1-yl)-7,8-dihydropyrido[4,3-d]pyrimidin-6(5H)-yl)-1-hydroxyethyl)-4-methylisobenzofuran-1(3H)-one], the IC50 at hROMK (human Kir1.1) was 60 nM; on hROMK, 23 nM. Moreover, the inhibition at 1 µM on hERG was 11%.

As for `Cc1c(C(O)CN2CCc3nc(-n4ccc5c(C#N)cncc54)ncc3C2)ccc2c1COC2=O` (single isomer, unassigned) [Example 42-I, 1-(6-(2-hydroxy-2-(4-methyl-1-oxo-1,3-dihydroisobenzofuran-5-yl)ethyl)-5,6,7,8-tetrahydropyrido[4,3-d]pyrimidin-2-yl)-1H-pyrrolo[2,3-c]pyridine-4-carbonitrile], the IC50 stood at 70 nM at hROMK (human Kir1.1) and 34 nM on hROMK. Besides, at hERG, the inhibition at 1 µM worked out at 41%.

Regarding `Cc1c(C(O)CN2CCc3nc(-n4cnc5ncccc54)ncc3C2)ccc2c1COC2=O` (single isomer, unassigned) [Example 53-I, 5-(2-(2-(1H-imidazo[4,5-b]pyridin-1-yl)-7,8-dihydropyrido[4,3-d]pyrimidin-6(5H)-yl)-1-hydroxyethyl)-4-methylisobenzofuran-1(3H)-one], the IC50 at hROMK (human Kir1.1) is 135 nM. The IC50 at hROMK is 87 nM. Moreover, at hERG, the inhibition at 1 µM stood at 13% and the inhibition at 3 µM is 34%.

For `Cc1c(C(O)CN2CCc3nc(-n4cc(C#N)cn4)ncc3C2)ccc2c1COC2=O` (single isomer, unassigned) [Example 56-I, 1-(6-(2-hydroxy-2-(4-methyl-1-oxo-1,3-dihydroisobenzofuran-5-yl)ethyl)-5,6,7,8-tetrahydropyrido[4,3-d]pyrimidin-2-yl)-1H-pyrazole-4-carbonitrile], the IC50 at hROMK (human Kir1.1) was found to be 44 nM. At hROMK, the IC50 worked out at 12 nM. Further, at hERG, the inhibition at 1 µM was 35%, the inhibition at 3 µM amounted to 65% and the inhibition at 10 µM is 82%.

As to `Cc1cn(-c2ncc3c(n2)CCN(CC(O)c2ccc4c(c2C)COC4=O)C3)cn1` (single isomer, unassigned) [Example 58-I, 5-(1-hydroxy-2-(2-(4-methyl-1H-imidazol-1-yl)-7,8-dihydropyrido[4,3-d]pyrimidin-6(5H)-yl)ethyl)-4-methyl isobenzofuran-1(3H)-one], the IC50 at hROMK (human Kir1.1) amounted to 62 nM. Further, the IC50 at hROMK came to 13 nM. In addition, on hERG, the inhibition at 1 µM was 9%, the inhibition at 3 µM worked out at 20% and the inhibition at 10 µM came to 42%.

As for `Cc1c(C(O)CN2CCc3nc(-n4cc(C#N)c5ncccc54)ncc3C2)ccc2c1COC2=O` (single isomer, unassigned) [Example 68-I, 1-(6-(2-hydroxy-2-(4-methyl-1-oxo-1,3-dihydroisobenzofuran-5-yl)ethyl)-5,6,7,8-tetrahydropyrido[4,3-d]pyrimidin-2-yl)-1H-pyrrolo[3,2-b]pyridine-3-carbonitrile], the IC50 at hROMK (human Kir1.1) was 29 nM. Besides, the IC50 on hROMK turned out to be 23 nM. At hERG, the inhibition at 1 µM worked out at 22%, the inhibition at 3 µM was 54% and the inhibition at 10 µM came to 86%.

Turning to `N#Cc1ccc(Nc2ccc3c(c2)CCN(Cc2ccc4c(c2)COC4=O)C3)cc1F` [Example 4, 2-fluoro-4-((2-((1-oxo-1,3-dihydroisobenzofuran-5-yl)methyl)-1,2,3,4-tetrahydroisoquinolin-6-yl)amino)benzonitrile], the IC50 on hROMK (human Kir1.1) worked out at 29 nM; at hROMK, 31 nM. For the same compound, the inhibition at 1 µM on hERG was determined as 94%.

In general, IC50 refers to the point on the concentration scale where inhibition reaches its midpoint. As usually defined, the inhibition is the percentage by which the read-out fell short of the control.
